Measured values as given in patent US4414334A, “Oxygen scavenging with enzymes” (Phillips Petroleum Company, priority 1981, dated 1983).

Legend:
[1] = target: alcohol oxidase (alcohol: oxygen oxidoreductase) isolated from Pichia pastoris (Komagataella phaffii, UniProt F2QY27)
[2] = substrate: CO; assay: purified protein, by the assay type; settings: other: Pichia pastoris alcohol oxidase; substrate methanol

CO [methanol]
Km ([1]; read-out: apparent Michaelis constant, Km, for methanol, substrate methanol): ~4 mM

C=O [HCHO, formaldehyde]
Inhibitors (inhibitory concentration of HCHO) ([1]; Table I lists HCHO as inhibitor at >30 mM): > 30 mM

B1: alcohol oxidase (alcohol: oxygen oxidoreductase) isolated from Pichia pastoris (Komagataella phaffii CBS 7435) (protein)
chain: AIPEEFDILVLGGGSSGSCIAGRLANLDHSLKVGLIEAGENNLNNPWVYLPGIYPRNMKLDSKTASFYTSNPSPHLNGRRAIVPCANVLGGGSSINFMMYTRGSASDYDDFQAEGWKTKDLLPLMKKTETYQRACNNPDIHGFEGPIKVSFGNYTYPVCQDFLRASESQGIPYVDDLEDLVTAHGAEHWLKWINRDTGRRSDSAHAFVHSTMRNHDNLYLICNTKVDKIIVEDGRAAAVRTVPSKPLNPKKPSHKIYRARKQIVLSCGTISSPLVLQRSGFGDPIKLRAAGVKPLVNLPGVGRNFQDHYCFFSPYRIKPQYESFDDFVRGDAEIQKRVFDQWYANGTGPLATNGIEAGVKIRPTPEELSQMDESFQEGYREYFEDKPDKPVMHYSIIAGFFGDHTKIPPGKYMTMFHFLEYPFSRGSIHITSPDPYAAPDFDPGFMNDERDMAPMVWAYKKSRETARRMDHFAGEVTSHHPLFPYSSEARALEMDLETSNAYGGPLNLSAGLAHGSWTQPLKKPTAKNEGHVTSNQVELHPDIEYDEEDDKAIENYIREHTETTWHCLGTCSIGPREGSKIVKWGGVLDHRSNVYGVKGLKVGDLSVCPDNVGCNTYTTALLIGEKTATLVGEDLGYSGEALDMTVPQFKLGTYEKTGLARF
Km [2]: 4 mM
